Laboratory results from article PMC7179312 (Antimicrobial Agents and Chemotherapy, 2020).

Columns and labels:
[1] = system: P. aeruginosa PAM1154 carrying pUCP24 vector (PAM4175); experiment: MIC, CLSI broth microdilution; assay type: cell-based; conditions: Pseudomonas aeruginosa, drug alone
Description: The effects of KPC mutations on resistance to various antibiotics were investigated. For these studies, pUCP24 plasmids carrying wild-type and mutant blaKPC-2 genes as well as the pUCP24 vector were transformed into PAM1154, an efflux-deficient strain of Pseudomonas aeruginosa. In this host, the effect of β-lactamases on β-lactam MIC is amplified due to the slowed uptake of β-lactams across the low-permeability outer membrane without interference by efflux of either β-lactams or BLIs. Consequently, this host allows detection of β-lactamase activity (as an MIC increase) of low-catalytic-efficiency enzymes that rely heavily on the low permeability of the outer membrane. Using the strain that lacks efflux pumps ensures no interference from efflux in interpreting results. We next evaluated the steady-state protein expression levels in bacterial cells. […] The observed discrepancy with our results could be attributed to the difference in either the expression vector or host bacteria.
(§1) For microbiological studies, wild-type blaKPC-2 and its mutant variants were cloned into the shuttle vector pUCP24. Resulting plasmids were transformed in the efflux-deficient strain of P. aeruginosa PAM1154 using selection on 15 μg/ml of gentamicin. Using a strain of P. aeruginosa as opposed to E. coli as a host for various cloned genes was based on the following consideration. As well documented elsewhere ([41]), P. aeruginosa has a low-permeability outer membrane; consequently, the effect of β-lactamases on MIC is amplified in P. aeruginosa compared to that in E. coli due to the slowed uptake of β-lactams. Thus, this host is appropriate to detect β-lactamase activity (as an MIC increase) of low-catalytic-efficiency enzymes that rely heavily on low permeability of the outer membrane. […] MICs were determined using the Clinical and Laboratory Standards Institute (CLSI) broth microdilution method as described in CLSI document M07-A11 ([42]). Potentiation of antibiotic activity by various BLIs in bacterial strains carrying wild-type (WT) and mutant KPC-2 genes was performed using standard checkerboard methodology ([43]). BLI potency was defined as PV50 (PV, potentiation value). PV50 is the minimal concentration of a BLI that is required to reduce the antibiotic MIC to the middle of the MIC range (E50) where the highest MIC is the MIC for a KPC-producing strain with no inhibitor added and the lowest MIC is the MIC for the vector-only strain, corresponding to the complete inhibition of KPC. E50 is calculated as the square root of the product of the antibiotic MICs for the KPC-producing and the vector-only strains.

[2] = system: P. aeruginosa PAM1154 carrying pUCP24-KPC-2::D179Y (PAM4639); experiment: MIC, CLSI broth microdilution; assay type: cell-based, Pseudomonas aeruginosa; conditions: for MIC: Pseudomonas aeruginosa, PAM4639, pUCP24-KPC-2::D179Y, drug alone
Description: (§2) The effects of KPC mutations on resistance to various antibiotics were investigated. For these studies, pUCP24 plasmids carrying wild-type and mutant blaKPC-2 genes as well as the pUCP24 vector were transformed into PAM1154, an efflux-deficient strain of Pseudomonas aeruginosa. In this host, the effect of β-lactamases on β-lactam MIC is amplified due to the slowed uptake of β-lactams across the low-permeability outer membrane without interference by efflux of either β-lactams or BLIs. Consequently, this host allows detection of β-lactamase activity (as an MIC increase) of low-catalytic-efficiency enzymes that rely heavily on the low permeability of the outer membrane. Using the strain that lacks efflux pumps ensures no interference from efflux in interpreting results. We next evaluated the steady-state protein expression levels in bacterial cells.
as §1, with “Potentiation of antibiotic activity by various BLIs in bacterial strains carrying wild-type (WT) and mutant KPC-2 genes was performed using standard checkerboard methodology ([43]).” left out

[3] = system: P. aeruginosa PAM1154 carrying pUCP24-KPC-2::L169P (PAM4751); experiment: MIC, CLSI broth microdilution; assay type: cell-based, Pseudomonas aeruginosa; conditions: for MIC: Pseudomonas aeruginosa, PAM4751, pUCP24-KPC-2::L169P, drug alone
Description: as §2
as §1, with “Potentiation of antibiotic activity by various BLIs in bacterial strains carrying wild-type (WT) and mutant KPC-2 genes was performed using standard checkerboard methodology ([43]).” left out

[4] = system: P. aeruginosa PAM1154 carrying pUCP24-KPC-2 (PAM4135); experiment: MIC, CLSI broth microdilution; assay type: cell-based; conditions: Pseudomonas aeruginosa; PAM4135, pUCP24-KPC-2; drug alone
Description: as §2
as §1, with “Potentiation of antibiotic activity by various BLIs in bacterial strains carrying wild-type (WT) and mutant KPC-2 genes was performed using standard checkerboard methodology ([43]).” left out

[5] = system: P. aeruginosa PAM1154 carrying pUCP24 vector (PAM4175); experiment: Checkerboard potentiation of antibiotic activity by BLIs; assay type: cell-based, Pseudomonas aeruginosa
Description: BLI potency was defined as PV50 (PV, potentiation value) of antibiotic potentiation. PV50 is the concentration of a BLI that is required to reduce the antibiotic MIC to the middle of the MIC range where the highest MIC is the MIC for a KPC-producing strain with no inhibitor added and the lowest MIC is the MIC for the vector-alone strain, which corresponds to complete inhibition of KPC. As a given MIC is directly related to the β-lactamase activity, PV50 might be considered the concentration of a BLI that is required to achieve half-effect of inhibition of β-lactamase activity (in whole cells) to hydrolyze an antibiotic of interest. […] However, the accurate determination of PV50 requires the MIC range to be relatively wide.
as §1, with “Potentiation of antibiotic activity by various BLIs in bacterial strains carrying wild-type (WT) and mutant KPC-2 genes was performed using standard checkerboard methodology ([43]).” left out
7 MIC range between the MIC of the beta-lactamase producing strain and the MIC of the vector only strain. The middle point is calculated as the square root of the product of the
8 antibiotic MIC values for the beta-lactamas e-producing and the vector onl y strain.

KPC-2 L169P = target: T1, KPC-2 L169P (Klebsiella pneumoniae, UniProt Q9F663, L168P); experiment: Kinetics of nitrocefin and ceftazidime hydrolysis by purified enzyme; assay type: biochemical
T1 construct: 6xHis (C); made in house; host or cells: E. coli (pET28a construct; BL21(DE3) pLys is named only for wild type and D179Y)
Procedure: (§3) Enzymes were mixed with various concentrations of nitrocefin in 50 mM sodium phosphate (pH 7.0)–0.1 mg/ml of bovine serum albumin (buffer A), and substrate cleavage was monitored at 490 nm every 10 s for 10 min at 37°C on a SpectraMax plate reader (Molecular Devices, San Jose, CA). Initial rates of nitrocefin cleavage were calculated and used to obtain Km and kcat values with Prism software (GraphPad, San Diego, CA).
(§4) Substrate cleavage was monitored at 260 nm every 30 s at room temperature using a SpectraMax plate reader. The reaction was monitored until OD260 values reached a plateau. Resulting OD260 versus time reaction profiles were fitted to the following equation using Prism software: At = A∞ + (A0 − A∞) × e^−k×t, where At is absorbance at time t, A0 is initial absorbance, and A∞ is final absorbance. In this equation, k = kcat/Km × [E], which allows calculatation of kcat/Km knowing the enzyme concentration ([44]).

KPC-2 = target: T2, KPC-2 (Klebsiella pneumoniae, UniProt Q9F663); experiment: as above; assay type: biochemical; conditions: substrate hydrolysis by purified KPC-2
T2 construct: 6xHis (C); made in house; host or cells: E. coli BL21(DE3) pLys, pET28a
Procedure: as §3, §4

KPC-2 D179Y = target: T3, KPC-2 D179Y (Klebsiella pneumoniae, UniProt Q9F663, D178Y); experiment: as above; assay type: biochemical
T3 construct: 6xHis (C); made in house; host or cells: E. coli BL21(DE3) pLys, pET28a
Procedure: as §3, §4

[6] = system: CC(C)(O/N=C(\C(=O)N[C@@H]1C(=O)N2C(C(=O)[O-])=C(C[n+]3ccccc3)CS[C@H]12)c1csc(N)n1)C(=O)O; experiment: purified protein, by the assay type; assay type: biochemical; conditions: other: substrate hydrolysis by purified KPC-2; pH 7.0; 37.0 °C
[7] = substrate hydrolysis by purified KPC-2 L169P
[8] = substrate hydrolysis by purified KPC-2 D179Y

**Q.** Which MIC [1] does the source give for `C[C@H]1[C@H](NC(=O)/C(=N\OC(C)(C)C(=O)O)c2csc(N)n2)C(=O)N1S(=O)(=O)O` [Aztreonam, aztreonam] here?
**A.** The MIC was 0.125 µg/mL.

**Q.** `CC(C)(O/N=C(\C(=O)N[C@@H]1C(=O)N2C(C(=O)[O-])=C(C[n+]3ccccc3)CS[C@H]12)c1csc(N)n1)C(=O)O` [Ceftazidime, ceftazidime] was tested. Which MIC [2] did it give?
**A.** Its MIC is 512 µg/mL.

**Q.** What about the MIC [3] of the same compound?
**A.** The MIC was 256 µg/mL.

**Q.** And the MIC [4]?
**A.** Its MIC is 32 µg/mL.

**Q.** What about the “Antibiotic MIC, No BLI” value ([5]; no BLI) of the same compound?
**A.** The value was 0.25 µg/mL.

**Q.** And the MIC [1]?
**A.** The MIC was 0.25 µg/mL.

**Q.** `C[C@@H](O)[C@H]1C(=O)N2C(C(=O)O)=C(S[C@@H]3CN[C@H](C(=O)N(C)C)C3)[C@H](C)[C@H]12` [Meropenem, meropenem] was tested. Which “reduction of MIC vs wild-type KPC-2 strain” value ([2]; D179Y strain) did it give?
**A.** The value was 64 fold.

**Q.** What about the MIC [2] of the same compound?
**A.** Its MIC is 1 µg/mL.

**Q.** And the “increase of MIC vs vector-only strain” value ([2]; {})?
**A.** Its value is 8-16 fold.

**Q.** What about the “reduction of MIC vs wild-type KPC-2 strain” value ([3]; L169P strain) of the same compound?
**A.** The value was 64 fold.

**Q.** What about the MIC [3] of the same compound?
**A.** The MIC was 1 µg/mL.

**Q.** And the “increase of MIC vs vector-only strain” value ([3]; {})?
**A.** Its value is 8-16 fold.

**Q.** And the MIC [4]?
**A.** Its MIC is 64 µg/mL.

**Q.** What about the MIC [1] of the same compound?
**A.** Its MIC is 0.125 µg/mL.

**Q.** Which results are given for `O=C(Cc1cccs1)N[C@@H]1C(=O)N2C(C(=O)O)=C(/C=C/c3ccc([N+](=O)[O-])cc3[N+](=O)[O-])CS[C@H]12` [Nitrocefin, nitrocefin]?
**A.** reduction of kcat vs wild-type KPC-2 (KPC-2 L169P; KPC-2 L169P): ~300 fold; Km (KPC-2 L169P; [7]): 40 ± 10 µM; kcat (KPC-2 L169P; [7]): 0.47 ± 0.04 s⁻¹; Km (KPC-2): 36 ± 5 µM; kcat (KPC-2): 132 ± 13 s⁻¹; reduction of kcat vs wild-type KPC-2 (KPC-2 D179Y; KPC-2 D179Y): approximately 6,000 fold; Km (KPC-2 D179Y; [8]): 26 ± 12 µM; kcat (KPC-2 D179Y; [8]): 0.023 ± 0.002 s⁻¹

**Q.** For `CCN1CCN(C(=O)N[C@@H](C(=O)N[C@@H]2C(=O)N3[C@@H]2SC(C)(C)[C@@H]3C(=O)O)c2ccccc2)C(=O)C1=O` [Piperacillin, piperacillin], which “Beta-lactam MIC in the presence of BLI” value ([5]; avibactam 0 µg/ml) is on record?
**A.** Its value is 0.125 µg/mL.

**Q.** And the “Beta-lactam MIC in the presence of BLI” value ([5]; avibactam 0.008 µg/ml)?
**A.** Its value is 0.125 µg/mL.

**Q.** And the “Beta-lactam MIC in the presence of BLI” value ([5]; avibactam 0.031 µg/ml)?
**A.** The value was 0.125 µg/mL.

**Q.** And the “Beta-lactam MIC in the presence of BLI” value ([5]; avibactam 0.06 µg/ml)?
**A.** Its value is 0.125 µg/mL.

**Q.** And the “Beta-lactam MIC in the presence of BLI” value ([5]; avibactam 0.5 µg/ml)?
**A.** Its value is 0.125 µg/mL.

**Q.** And the “Beta-lactam MIC in the presence of BLI” value ([5]; avibactam 64 µg/ml)?
**A.** The value was 0.03 µg/mL.

**Q.** And the “Beta-lactam MIC in the presence of BLI” value ([5]; avibactam […])?
**A.** Its value is 0.125 µg/mL.

**Q.** And the “Beta-lactam MIC in the presence of BLI” value ([5]; vaborbactam 0 µg/ml)?
**A.** Its value is 0.125 µg/mL.

**Q.** And the “Beta-lactam MIC in the presence of BLI” value ([5]; vaborbactam 0.008 µg/ml)?
**A.** The value was 0.125 µg/mL.

**Q.** And the “Beta-lactam MIC in the presence of BLI” value ([5]; vaborbactam 0.031 µg/ml)?
**A.** Its value is 0.125 µg/mL.

**Q.** What about the “Beta-lactam MIC in the presence of BLI” value ([5]; vaborbactam 0.06 µg/ml) of the same compound?
**A.** Its value is 0.125 µg/mL.

**Q.** And the “Beta-lactam MIC in the presence of BLI” value ([5]; vaborbactam 0.5 µg/ml)?
**A.** Its value is 0.125 µg/mL.

**Q.** And the “Beta-lactam MIC in the presence of BLI” value ([5]; vaborbactam 1 µg/ml)?
**A.** The value was 0.125 µg/mL.

**Q.** What about the “Beta-lactam MIC in the presence of BLI” value ([5]; vaborbactam 2 µg/ml) of the same compound?
**A.** Its value is 0.125 µg/mL.

**Q.** What about the “Beta-lactam MIC in the presence of BLI” value ([5]; vaborbactam 4 µg/ml) of the same compound?
**A.** The value was 0.125 µg/mL.

**Q.** And the “Beta-lactam MIC in the presence of BLI” value ([5]; vaborbactam 8 μg/ml)?
**A.** Its value is 0.125 µg/mL.

**Q.** What about the “Beta-lactam MIC in the presence of BLI” value ([5]; vaborbactam 16 µg/ml) of the same compound?
**A.** The value was 0.125 µg/mL.

**Q.** What about the “Beta-lactam MIC in the presence of BLI” value ([5]; vaborbactam […]) of the same compound?
**A.** Its value is 0.125 µg/mL.

**Q.** What about the MIC [1] of the same compound?
**A.** The MIC was 0.06 µg/mL.

**Q.** With KPC-2 (Klebsiella pneumoniae) as the compound, how does the kcat [6] read?
**A.** Its kcat is greater than 2.6 s⁻¹.

**Q.** What about the kcat/Km [6] of the same compound?
**A.** The kcat/Km was 870 ± 110 M⁻¹ s⁻¹.
